Earlier results, collected in patent publication US12508269B2, “Parenteral dosage form of carboplatin” (priority 2018, dated 2025).

[NH2][Pt]1([NH2])[O]C(=O)C2(CCC2)C(=O)[O]1 [carboplatin, diammine [1,1-cyclobutanedicarboxylato(2-)-0, 0′]]
time for which reconstituted or diluted aqueous solutions were stable (Myres et al, refrigeration in the dark or room temperature exposed to fluorescent light): seven | time for which reconstituted solutions are stable (pack insert of Paraplatin and references): 8 h
